{
  "source": "patent US11528929B2",
  "about": "“Composition for treatment of overactive bladder” (priority 2019, dated 2022)",
  "origin": "cited, not measured here",
  "settings": "pH at 50% bound and 50% in free form",
  "data": [
    {"smiles": "O=C(O)CC(O)C(=O)O", "note": "(stereo not shown) [malic acid]", "values": [
      {"measurement": "isoelectric pH (dissociation point)", "result": 3.41}
    ]}
  ]
}
